Read-outs that look alike come from different tables or passages of the source.
Legend:
Assay type in all cases: cell-based
[1] = test system: IκBα and p38 MAP kinase phosphorylation; assay: LPS- or TNF-α-induced phosphorylation of IκBα and p38 MAP kinase in RPMI 8226 cells; conditions: 13 μM
Procedure: One ml/well of 2×10^6/ml RPMI 8226 cells (#CCL-155C, American Type Culture Collection) were seeded in 6-well plate in LGM-3 medium and cultured for overnight at 37° C., 5% CO2 and 95% humidified air. Formula (IIB-A1) was added to RPMI 8226 cells at the final concentration of 13 μM for 1 hr. DMSO was used as a control. Cells were then either stimulated by LPS (50 ng/ml) or by TNF-α (10 ng/ml) for various length of time. At the end of each period of stimulation, cells were harvested by centrifugation and cell pellets were washed once in ice-cold 1× Dulbecco's Phosphate buffered Saline (DPBS). To prepare samples for SDS-PAGE, cells were lysed in RIPA buffer (50 mM Tris-HCl, pH7.4, 0.9% NaCl, 1% Triton X-100, 0.25% Na-deoxycholate, 1 mM EDTA, 2 mM Na3VO4 and 1× protease inhibitors cocktail) for 15 min on ice. Cell lysates were cleared by centrifugation at 14,000 rpm, 4° C. for 10 min. Protein concentrations of cell lysates were determined by BCA protein assay kit prior to SDS-PAGE. Equal amount of proteins from various cell lysates were resolved on 10% NuPage MES precast gels and transferred to nitrocellulose membranes according to the manufacturer's instructions. […]

[2] = test system: MM cell lines (MM.1S, MM.1R, OCI-MyS, OPM-1, Dox-40); assay: viability of MM cell lines (MM.1S, MM.1R, OCI-MyS, OPM-1, Dox-40); conditions: 48 h; all cell lines; read-out: IC50 range, decrease in cell viability
Procedure: (§1) Transcription factor NF-KB is linked to growth and survival of multiple myeloma (MM) cells and blockade of NF-KB activity. NPI-1387 (Formula IIB-b1; compound 24 shown above under scheme 4), a potent small-molecule inhibitor of upstream activator of NF-KB, was administered to MM cells and its effect on the viability of MM cells, including those resistant to conventional agents dexamethasone or doxorubicin is shown.

MM cells = assay: apoptosis of MM cells (DAPI, PARP cleavage, caspases)
Procedure: as §1
(§2) Besides nuclear condensation, NF-KB inhibitor triggered proteolytic cleavage of poly (ADP ribose) polymerase (PARP), a hallmark of apoptosis.
Both caspase-8 and caspase-9 activate downstream caspase-3. […] Collectively, these findings show the efficacy of NF-KB inhibitor to enhance MM cell killing, overcome drug-resistance, and improve patient outcome in MM.

[3] = test system: peripheral blood mononuclear cells; assay: viability of peripheral blood mononuclear cells from normal healthy donors
Excerpt: as §2

Panc1 and HS766T = assay: TRAIL resistance of human pancreatic cancer cell lines
Excerpt: Novel diterpene inhibitors of NFκB derived from acanthoic acid (NPI-1342 (Formula IIB-a1) and NPI-1387; compound 24 under scheme 4 above) show measurable effects in human pancreatic cancer cell lines in vitro. Seven of the nine cell lines were moderately sensitive to apoptosis induced by death receptor ligand Tumor Necrosis Factor (TNF) related apoptosis-inducing ligand (TRAIL). […] Specific silencing of NFkB/p65 expression mimicked these effects. Furthermore, combination treatment of Salinosporamide A and either NPI-1342 or NPI-1387 led to induction of apoptosis as measured by PI FACS analysis. Specifically, levels of DNA fragmentation increased from 4% to 50% in HS766T cells and from 4% to 52% in Panc1 cells. The inhibitory effects of NPI-1342, NPI-1387 on NFκB were evaluated by Electromobility Shift Assays and confirmed by confocal microscopy.

[4] = test system: NF-κB DNA binding activity; assay: NF-κB DNA binding activity, EMSA, PC-3; conditions: TNF-α

Row | Structure (SMILES) | phosphorylation levels of IκBα and p38 MAP kinase induced by LPS and TNF-α in RPMI 8226 cells [1] | phosphorylation levels of IκBα and p38 MAP kinase induced by LPS and TNF-α in RPMI 8226 cells ([1]; listed as formula (IIB-A1)) | IC50 [2] [µM] | Apoptic signaling in MM cells, intrinsic and extrinsic pathways (MM cells) | caspase activation (MM cells; 25 μM) | apoptosis (nuclear condensation, PARP cleavage) (MM cells; respective IC50 for 48 h) | toxicity against / change in viable peripheral blood mononuclear cells [3] | toxicity against / change in viable peripheral blood mononuclear cells ([3]; listed as NF-KB inhibitor) | TRAIL resistance (Panc1 and HS766T) | NF-κB DNA binding activity [4]
1 | C=C[C@@]1(C)CCC=C2[C@H]1CC[C@@H]1[C@](C)(C(=O)NC3CCCCC3)CCC[C@@]21C [Formula (IIB-A1), N-Cyclohexylamide Derivative of TTL] | specifically inhibits LPS-induced phosphorylation of IκBα and p38 MAP kinase | specifically decreases LPS-induced phosphorylation of IκBα and p38 MAP kinase | – | – | – | – | – | – | – | –
2 | C=CC(=O)C1(C)CCCC2(C)C3=CCC(C)(C=C)C[C@@H]3CC[C@H]12 (stereo in doubt) [NPI-1387, 1-[(1S,4aS,7R)-1,4a,7-Trimethyl-7-vinyl-1,2,3,4,4a,6,7,8,8a,9,10,10a-dodecahydro-1-phenanthrenyl]-2-propen-1-one] | – | – | 25 to 40 | triggered by NPI-1387 | induces activation of caspase-8, caspase-9, followed by caspase-3 cleavage | significant apoptosis | relatively minimal | no significant toxicity | reversed TRAIL resistance | inhibits the DNA binding activity of NF-κB in a dose-dependent manner

— patent US7893299B2, “Interleukin-1 and tumor necrosis factor-αmodulators; syntheses of such modulators and methods of using such modulators” (Nereus Pharmaceuticals, Inc., priority 2005, dated 2011)
